Test results: US9451775B2, “Heterocyclic compounds as pesticides” (Bayer Intellectual Property GmbH, priority 2008, dated 2016)
Like-named read-outs stand apart in the source and are kept apart here.

Experiments:
[1] = logP determination by HPLC (formic acid method); assay type: physicochemical; conditions: reversed-phase HPLC column (C18), read-out: logP (HCOOH)
Outline: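 Reversed-phase C18 HPLC at 55 °C, pH 3.4, with a 4.25 min gradient from 10% to 95% acetonitrile (formic acid-modified water/acetonitrile phases). logP was derived from retention time by linear interpolation between unbranched alkan-2-ones (C3-C16) of known logP.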

[2] = system: green peach aphid (Myzus persicae); test: Myzus test (spray treatment); assay type: in vivo; conditions: foliar, read-out: activity (effect in %, aphids killed)
Description: Myzus Test (Spray Treatment)
• Solvents: 78.0 parts by weight of acetone • 1.5 parts by weight of dimethylformamide • Emulsifier: 0.5 part by weight of alkylaryl polyglycol ether
To produce a suitable preparation of active compound, 1 part by weight of active compound is mixed with the stated amounts of solvents and emulsifier, and the concentrate is diluted with emulsifier-containing water to the desired concentration.
Discs of leaves of Chinese cabbage (Brassica pekinensis) which are heavily infested by all stages of the green peach aphid (Myzus persicae) are sprayed with an active compound preparation of the desired concentration.
After the desired period of time, the effect in % is determined. 100% means that all aphids have been killed; 0% means that none of the aphids have been killed.

[3] = pH 3.4, HPLC on reversed-phase column (C18), acidic range (pH 3.4), 55° C.
[4] = application rate of 500 g/ha, sprayed Chinese cabbage leaf discs
[5] = pH 3.4, values printed in the text of the preparation examples, formic acid method

| Structure (SMILES) | chromatographic logP [1, 3] | pest or weed control at 500 g/ha [2, 4] | chromatographic logP [1, 5] | pest or weed control at 100 g/ha ([2]; application rate of 100 g/ha, sprayed Chinese cabbage leaf discs) | pest or weed control at 500 g/ha ([2]; in Brassica rapa) |
| --- | --- | --- | --- | --- | --- |
| Cc1nc(-c2cccnc2)sc1-c1ccn(Cc2ncccn2)n1 [compound 146] | 1.43 | ≥ 80% | – | – | – |
| CCCc1cccc(-c2nccc(-c3sc(-c4cccnc4)nc3C)n2)n1 [compound 58] | 2.25 | ≥ 80% | – | – | – |
| Cn1nc(-c2cccnc2)cc1-c1ccn(Cc2ccccn2)n1 [compound 166] | 0.91 | ≥ 80% | – | – | – |
| Cc1nc(-c2cncnc2)sc1-c1cccc(-c2ncccn2)n1 [compound 150] | 1.76 | ≥ 80% | – | – | – |
| Cc1nc(-c2cccnc2)sc1-c1ccn(-c2cnc(C(F)(F)F)nc2)n1 [compound 78] | 2.99 | ≥ 80% | – | – | – |
| Cc1nc(-c2nccc(-c3sc(-c4cccnc4)nc3C)n2)cs1 [compound 56] | 2.08 | ≥ 80% | – | – | – |
| CCc1cccc(-c2nccc(-c3sc(-c4cccnc4)nc3C)n2)n1 [compound 57] | 1.88 | ≥ 80% | – | – | – |
| Cc1nc(-c2cccnc2)sc1-c1ccn(C(=O)NC2CCCCC2)n1 [compound 122] | 3.56 | ≥ 80% | – | – | – |
| Cc1nc(-c2cccnc2)sc1-c1ccn(C(=S)NCC(F)(F)F)n1 [compound 141] | 3.42 | ≥ 80% | – | – | – |
| Cc1nc(-c2cccnc2)sc1-c1ccn(-c2cnccn2)n1 [Preparation Example 2, 2-[3-(4-Methyl-2-pyridin-3-ylthiazol-5-yl)pyrazol-1-yl]pyrazine] | 2.3 | ≥ 80% | 2.3 | – | – |
| Cc1nc(-c2cccnc2)sc1-c1nc(-c2ccncc2)no1 [compound 138] | 2.19 | ≥ 80% | – | – | – |
| Cc1nc(-c2cccnc2)sc1-c1cccc(C2=NOCCO2)c1 [compound 101] | 2.42 | ≥ 80% | – | – | – |
| CCC(CC#N)NC(=O)n1ccc(-c2sc(-c3cccnc3)nc2C)n1 (stereo not shown) [compound 131] | 2.14 | ≥ 80% | – | – | – |
| Cc1cc(=O)n(-c2nccc(-c3sc(-c4cccnc4)nc3C)n2)[nH]1 [compound 47] | 1.48 | ≥ 80% | – | – | – |
| Cc1nc(-c2cccnc2)sc1-c1nc(-c2nnc(C(F)(F)F)n2C)no1 [compound 91] | 2.41 | ≥ 80% | – | – | – |
| c1cncc(-c2ncc(-c3cccc(C4=NOCCO4)n3)s2)c1 [compound 148] | 1.59 | ≥ 80% | – | – | – |
| c1cnc(-n2ccc(-c3nnc(-c4cccnc4)s3)n2)nc1 [compound 160] | 1.44 | ≥ 80% | – | – | – |
| FC(F)(F)c1noc(-c2cnc(-c3cccnc3)s2)n1 [compound 71] | 2.7 | ≥ 80% | – | – | – |
| COCCNC(=O)n1ccc(-c2sc(-c3cccnc3)nc2C)n1 [compound 126] | 1.87 | ≥ 80% | – | – | – |
| c1cncc(-c2nnc(-c3ccncc3)s2)c1 [compound 158] | 1.41 | ≥ 80% | – | – | – |
| Cc1nc(-c2cccnc2)sc1-c1ccn(-c2ncccn2)n1 [compound 22] | 1.74 | ≥ 80% | – | – | – |
| Cc1nc(-c2cccnc2)sc1-c1cccc(-n2ccnn2)n1 [compound 154] | 2.13 | ≥ 80% | – | – | – |
| Cc1nc(-c2cccnc2)sc1-c1ccnc(-c2ncc(F)cc2F)n1 [compound 48] | 2.08 | ≥ 80% | – | – | – |
| C#CC(C)(C)NC(=O)n1ccc(-c2sc(-c3cccnc3)nc2C)n1 [compound 134] | 2.69 | ≥ 80% | – | – | – |

| Structure (SMILES) | chromatographic logP [1, 3] | pest or weed control at 500 g/ha [2, 4] | chromatographic logP [1, 5] | pest or weed control at 100 g/ha ([2]; application rate of 100 g/ha, sprayed Chinese cabbage leaf discs) | pest or weed control at 500 g/ha ([2]; in Brassica rapa) |
| --- | --- | --- | --- | --- | --- |
| Cc1nc(-c2cccnc2)sc1-n1ccc(-c2ncccn2)n1 [Preparation Example 3, 2-[1-(4-Methyl-2-pyridin-3-ylthiazol-5-yl)-1H-pyrazol-3-yl]pyrimidine] | 1.48 | ≥ 80% | 1.48 | – | – |
| Cc1nc(-c2cccnc2)sc1-n1ccc(-c2ccc(Cl)s2)n1 [compound 37] | 3.81 | ≥ 80% | – | – | – |
| Cc1nc(-c2cccnc2)sc1-n1ccc(C(F)(F)C(F)(F)F)n1 [Ex. No. 140] | 3.31 | – | – | ≥ 80% | – |
| CCCOCC(C)NC(=O)n1ccc(-c2sc(-c3cccnc3)nc2C)n1 (stereo not shown) [compound 114] | 3.27 | ≥ 80% | – | – | – |
| Cc1nc(-c2cccnc2)sc1-c1cccc(N2CC(C)OC(C)C2)n1 (stereo not shown) [compound 98] | 3.55 | ≥ 80% | – | – | – |
| Cc1nc(-c2cccnc2)sc1-c1ccn(-c2nnc(C(F)(F)F)n2C)n1 [compound 80] | 2.27 | ≥ 80% | – | – | – |
| c1cnc(N2CCOC(c3cnc(-c4cccnc4)s3)=N2)nc1 [compound 67] | 1.9 | ≥ 80% | – | – | – |
| Cc1cc(C)nc(-c2nccc(-c3sc(-c4cccnc4)nc3C)n2)c1 [compound 65] | 1.36 | ≥ 80% | – | – | – |
| Cn1nc(-c2cccnc2)cc1-c1ccn(-c2ccccn2)n1 [compound 169] | 1.64 | ≥ 80% | – | – | – |
| c1cnc(-c2cccc(-c3nnc(-c4cccnc4)s3)n2)nc1 [Preparation Example 10, 2-[6-(5-Pyridin-3-yl-[1,3,4]thiadiazol-2-yl)pyridin-2-yl]pyrimidine] | 1.54 | ≥ 80% | 1.54 | – | – |
| Cc1nc(-c2cccnc2)sc1-c1ccn(-c2nnc(C(C)(C)C)s2)n1 [compound 83] | 3.63 | ≥ 80% | – | – | – |
| COCC(C)NC(=O)n1ccc(-c2sc(-c3cccnc3)nc2C)n1 (stereo not shown) [compound 113] | 2.23 | ≥ 80% | – | – | – |
| Cc1nc(-c2cccnc2)sc1-c1cccc(N2CCOCC2)n1 [compound 96] | 2.58 | ≥ 80% | – | – | – |
| Cc1nc(-c2cccnc2)sc1-c1ccn(-c2nnc(C3CCCC3)s2)n1 [compound 107] | 3.85 | ≥ 80% | – | – | – |
| CCOc1cc(OCC)nc(-n2ccc(-c3sc(-c4cccnc4)nc3C)n2)n1 [compound 79] | 3.94 | ≥ 80% | – | – | – |
| c1cncc(-c2ncc(-c3cccc(-n4nccn4)n3)s2)c1 [compound 155] | 1.89 | ≥ 80% | – | – | – |
| COCc1nccc(-c2cc(-c3cccnc3)nn2C)n1 [compound 167] | 0.83 | ≥ 80% | – | – | – |
| Cc1nc(-c2cccnc2)sc1-c1cccc(=O)[nH]1 [compound 32] | 1.23 | ≥ 80% | – | – | – |
| Cc1nc(-c2cccnc2)sc1-n1ccc([N+](=O)[O-])n1 [compound 35] | 1.92 | ≥ 80% | – | – | – |
| Fc1cncc(-c2ncc(-c3cccc(-c4ncccn4)n3)s2)c1 [compound 153] | 2.11 | ≥ 80% | – | – | – |
| Cc1nc(-c2cccnc2)sc1-c1cccc(S(C)(=O)=O)n1 [compound 68] | 1.62 | ≥ 80% | – | – | – |
| CNC(=S)n1ccc(-c2sc(-c3cccnc3)nc2C)n1 [compound 137] | 2.65 | ≥ 80% | – | – | – |
| Cc1nc(-c2cccnc2)sc1-c1cccc(-c2nccnn2)n1 [Preparation Example 4, 3-[6-(4-Methyl-2-pyridin-3-ylthiazol-5-yl)pyridin-2-yl]-[1,2,4]triazine] | 1.58 | – | 1.58 | – | ≥ 80% |
| Cc1nc(-c2sc(-c3cccnc3)nc2C)cs1 [compound 30] | 2 | ≥ 80% | – | – | – |
